The target in one assay is D(3) dopamine receptor (Rattus norvegicus, UniProt P19020). Description: Displacement of [3H]-spiroperidol from rat D3 receptor expressed in HEK293 cells assessed as inhibition constant by Cheng-Prusoff equation analysis.
Assay [1] concerns the target D(2) dopamine receptor (Homo sapiens, UniProt P14416). Kind of assay: biochemical.
Assay [2] addresses D(2) dopamine receptor (Rattus norvegicus, UniProt P61169). Kind of assay: biochemical.
Description: Displacement of [3H]-spiroperidol from rat D2L receptor expressed in HEK293 cells assessed as inhibition constant by Cheng-Prusoff equation analysis

Molecules are shown by their SMILES.

For orientation: Ki means a measure of affinity in units of concentration, obtained from inhibition or displacement. As to `CCCN(CC(=O)N1CCN(C(=O)CN(CCC)[C@H]2CCc3c(O)cccc3C2)CC1)[C@H]1CCc2c(O)cccc2C1`, at D(3) dopamine receptor, the inhibition constant (Ki) came out at 115 nM.

Usually EC50 stands for the concentration at which the effect is half-maximal. For `CCCN(CCc1cc(O)c(CCN(CCC)[C@H]2CCc3nc(N)sc3C2)cc1O)[C@H]1CCc2nc(N)sc2C1`, the inhibition constant (Ki) on D(3) dopamine receptor was determined as 6.87 nM. Moreover, the EC50 at D(2) dopamine receptor [1] came to 34.4 nM.

Take `CCCN(CCc1ccc(CCN(CCC)[C@H]2CCc3nc(N)sc3C2)cc1)[C@H]1CCc2c(O)cccc2C1`: the Ki was found to be 2.15 nM at D(3) dopamine receptor and 4.91 nM at D(2) dopamine receptor [2].

Consider `CCCN(CCN1CCN(CCN(CCC)[C@H]2CCc3c(O)cccc3C2)CC1)[C@H]1CCc2c(O)cccc2C1`, for which the Ki at D(3) dopamine receptor was 3.56 nM; on D(2) dopamine receptor [2], 12 nM.

For the compound `CCCN(CCc1ccc(CCN(CCC)[C@H]2CCc3c(O)cccc3C2)cc1)[C@H]1CCc2c(O)cccc2C1`, the Ki turned out to be 3.86 nM at D(3) dopamine receptor and 3.88 nM on D(2) dopamine receptor [2].

Values taken from ChEMBL document CHEMBL5236649 (Bioorg Med Chem, 2023).
